Reference: patent US20140128272A1, “Method for Inducing Dormancy of Cancer Tissue-Derived Cell Mass and Method for Evaluating Treating Means with the Use of Cancer-Tissue-Derived Cell Mass” (Osaka Prefectural Hospital Organization, priority 2012, published 2014)

What was measured:
[1] = tested on: cancer tissue-derived cell mass (sample C45, human colon cancer); experiment: in vitro drug sensitivity test with cancer tissue-derived cell mass, normal versus dormant state; type: cell-based; conditions: day 7, 5-FU and oxaliplatin 0.01-10 μg/ml, SN38 0.001-1 ng/ml, FIG. 6; for response of cancer tissue-derived cell mass to drug concentration (relative increase rate of area, no drug = 1): dormant state (dormancy medium); for proliferation of cancer cells in the cancer tissue-derived cell mass (relative increase rate of area, no drug = 1): normal culture conditions (StemPro hESC SFM medium)
Description: Using SN38,5-FU, and oxaliplatin known as anti-cancer agents, a drug sensitivity test was performed with C45 sample of Example 2. The test was proceeded by culturing the C45 obtained in example 2, in 1 cc of a dormancy medium or StemPro hESC SFM (Gibco; A10007-01) medium. Further, as to each drug, 5-FU and oxaliplatin were applied at concentrations of 0.01 μg/ml, 0.1 μg/ml, 1 μg/ml, and 10 μg/ml, and SN38 was applied at concentrations of 0.001 ng/ml, 0.01 ng/ml, 0.1 ng/ml, and 1 ng/ml, and comparative evaluation of the culture state was performed on day 7 after each culture. An increase rate of the area of the cancer tissue-derived cell mass was relatively expressed when the increase rate of the area under culture with no drug application was expressed as 1.

[2] = tested on: cancer tissue-derived cell mass (sample C45, human colon cancer); experiment: effect of growth factors on proliferation of cancer tissue-derived cell mass under 1% oxygen; type: cell-based; conditions: added to dormancy medium under hypoxic conditions (1% oxygen); heregulin 10 ng/ml, IGF 200 ng/ml, or both; FIG. 4
Description: The cancer tissue-derived cell mass obtained in Example 2 was purified as a composition and cultured in a dormancy medium (20 ml): DMEM/F12 with GlutaMAX (Invitrogen) 18.5 ml, 25% BSA (Invitrogen) 1.44 ml, and 2ME Stock […] in a 6 cm non-treated dish (EIKEN CHEMICAL: AG2000) in a personal gas incubator (APM-30D, ASTEC Co., Ltd.) or INVIVO2 400 (RUSKINN) for 15 days at 37° C. under the conditions of an oxygen concentration of 1%.

Molecule	response of cancer tissue-derived cell mass to drug concentration (relative increase rate of area, no drug = 1) [1]	proliferation of cancer cells in the cancer tissue-derived cell mass (relative increase rate of area, no drug = 1) [1]	growth of the cancer tissue-derived cell mass [2]
O=c1[nH]cc(F)c(=O)[nH]1 [5-FU]	did not respond to the concentration of drugs at all or responded little to it	suppressed	
CCc1c2c(nc3ccc(O)cc13)-c1cc3c(c(=O)n1C2)COC(=O)[C@]3(O)CC [SN38]	did not respond to the concentration of drugs at all or responded little to it	suppressed	
O=C1[O][Pt]2([NH][C@@H]3CCCC[C@H]3[NH]2)[O]C1=O [oxaliplatin]	did not respond to the concentration of drugs at all or responded little to it	suppressed	
heregulin			grew up rapidly
insulin-like growth factor [IGF]			grew up rapidly
